Patent US9073882B2, “Inhibitors of the renal outer medullary potassium channel” (Merck Sharp & Dohme Corp., priority 2010, dated 2015)
Like-named read-outs stand apart in the source and are kept apart here.

How the values were obtained:
hROMK1 (Kir1.1) = hROMK1 (Kir1.1) (Homo sapiens (Human), UniProt P48048); assay: ^86Rb^+ Efflux Assay; assay type: cell-based; conditions: CHO-DHFR- cells stably expressing hROMK1 (Kir1.1)
hROMK (hKir1.1) = hROMK (hKir1.1) (Homo sapiens (Human), UniProt P48048); assay: Thallium Flux Assay; assay type: cell-based; conditions: Table 2; HEK293 cells stably expressing hROMK (hKir1.1)
[1] = value in parentheses at the end of each Example, read-out: IC50 in the ^86Rb^+ Efflux Assay
[2] = Table 1, read-out: ^86Rb^+ Efflux Assay IC50

Chain of hROMK (hKir1.1) (P48048 whole entry): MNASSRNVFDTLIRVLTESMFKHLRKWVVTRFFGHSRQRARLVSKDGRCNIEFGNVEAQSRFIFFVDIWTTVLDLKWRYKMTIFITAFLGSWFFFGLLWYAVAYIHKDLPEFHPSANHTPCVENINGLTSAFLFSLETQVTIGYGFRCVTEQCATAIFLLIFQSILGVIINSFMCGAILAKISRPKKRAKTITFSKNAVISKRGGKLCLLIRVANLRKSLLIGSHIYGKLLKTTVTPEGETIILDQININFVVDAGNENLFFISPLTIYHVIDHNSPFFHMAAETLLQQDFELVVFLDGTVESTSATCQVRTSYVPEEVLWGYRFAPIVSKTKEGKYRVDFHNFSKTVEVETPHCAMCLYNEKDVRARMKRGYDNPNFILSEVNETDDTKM
Chain of hROMK1 (Kir1.1) (P48048 whole entry): as above

| IC50 (hROMK1 (Kir1.1); [1]) | IC50 (hROMK1 (Kir1.1); [2]) | IC50 (hROMK (hKir1.1)) | SMILES |
| --- | --- | --- | --- |
| 34 nM | 34 nM | 12 nM | Cc1c(CCN2CCN(CC(C)c3ccc4c(c3C)COC4=O)CC2)ccc2c1COC2=O (stereo not shown) [Example 94, 4-Methyl-5-(1-(4-(2-(4-methyl-1-oxo-1,3-dihydroisobenzofuran-5-yl)ethyl)piperazin-1-yl)propan-2-yl)isobenzofuran-1(3H)-one] |
| 78 nM |  | 17 nM | Cc1c(CCN2CCN(CCc3ccc(C#N)c(F)c3Cl)CC2)ccc2c1COC2=O [Example 86, 3-Chloro-2-fluoro-4-(2-{4-[2-(4-methyl-1-oxo-1,3-dihydro-2-benzofuran-5-yl)ethyl]piperazin-1-yl}ethyl)benzonitrile] |
| 180 nM |  |  | Cc1c(CCN2CCN(CC3CCOc4cc(C#N)ccc43)CC2)ccc2c1COC2=O (stereo not shown) [Example 91, 4-({4-[2-(4-Methyl-1-oxo-1,3-dihydro-2-benzofuran-5-yl)ethyl]piperazin-1-yl}methyl)-3,4-dihydro-2H-chromene-7-carbonitrile] |
| 63 nM |  |  | Cc1c(CCN2CCN(CCc3ccc4c(c3C)COC4=O)CC2)ccc(C#N)c1F [Example 82, 2-Fluoro-3-methyl-4-(2-{4-[2-(4-methyl-1-oxo-1,3-dihydro-2-benzofuran-5-yl)ethyl]piperazin-1-yl}ethyl)benzonitrile] |
| 160 nM |  |  | Cc1c(CCN2CCN(CCc3ccc(C#N)c(OC(F)F)c3)CC2)ccc2c1COC2=O [Example 49, 2-(Difluoromethoxy)-4-[2-[4-[2-(4-methyl-1-oxo-3H-isobenzofuran-5-yl)ethyl]piperazin-1-yl]ethyl]benzonitrile] |
| 74 nM |  |  | CCOc1cc(CCN2CCN(CCc3ccc4c(c3C)COC4=O)CC2)ccc1C#N [Example 77, 2-Ethoxy-4-(2-{4-[2-(4-methyl-1-oxo-1,3-dihydro-2-benzofuran-5-yl)ethyl]piperazin-1-yl}ethyl)benzonitrile] |
| 270 nM | 270 nM |  | COc1cc(CCN2CCN(CCc3ccc4c(c3)COC4=O)CC2C(F)(F)F)ccc1C#N (stereo not shown) [Example 56, 2-Methoxy-4-(2-{4-[2-(1-oxo-1,3-dihydro-2-benzofuran-5-yl)ethyl]-2-(trifluoromethyl)piperazin-1-yl}ethyl)benzonitrile] |
| 980 nM |  |  | c1cc2nonc2cc1CCN1CCN(C2CCc3cc(-n4cnnn4)ccc3C2)CC1 (stereo not shown) [Example 27, 5-(2-{4-[6-(1H-Tetrazol-1-yl)-1,2,3,4-tetrahydronaphthalen-2-yl]piperazin-1-yl}ethyl)-2,1,3-benzoxadiazole] |
| 92 nM |  |  | N#Cc1ccc2c(c1)OCCC2CN1CCN(CCc2ccc3c(c2)COC3=O)CC1 (stereo not shown) [Example 36, 4-({4-[2-(1-Oxo-1,3-dihydro-2-benzofuran-5-yl)ethyl]piperazin-1-yl}methyl)-3,4-dihydro-2H-chromene-7-carbonitrile] |
| 35 nM |  |  | Cc1c(CCN2CCN(CCc3ccc(C#N)c(Cl)c3)CC2)ccc2c1COC2=O [Example 71, 2-Chloro-4-(2-{4-[2-(4-methyl-1-oxo-1,3-dihydro-2-benzofuran-5-yl)ethyl]piperazin-1-yl}ethyl)benzonitrile] |
| 83 nM |  |  | COc1c(C#N)ccc(CCN2CCN(CCc3ccc4c(c3C)COC4=O)CC2)c1Cl [Example 88, 3-Chloro-2-methoxy-4-(2-{4-[2-(4-methyl-1-oxo-1,3-dihydro-2-benzofuran-5-yl)ethyl]piperazin-1-yl}ethyl)benzonitrile] |
| 650 nM |  |  | COc1cc(CCN2CCN(CCc3ccc4c(c3)COC4=O)C(C(F)(F)F)C2)ccc1C#N (stereo not shown) [Example 51, 2-Methoxy-4-(2-{4-[2-(1-oxo-1,3-dihydro-2-benzofuran-5-yl)ethyl]-3-(trifluoromethyl)piperazin-1-yl}ethyl)benzonitrile] |
| 270 nM |  |  | N#Cc1cccc2c1CCC2CN1CCN(CCc2ccc3c(c2)COC3=O)CC1 (stereo not shown) [Example 34, 1-((4-(2-(1-Oxo-1,3-dihydroisobenzofuran-5-yl)ethyl)piperazin-1-yl)methyl)-2,3-dihydro-1H-indene-4-carbonitrile] |
| 34 nM |  |  | COc1cc(CCN2CCN(CCc3ccc4c(c3C)COC4=O)CC2)c(F)cc1C#N [Example 53, 5-Fluoro-2-methoxy-4-(2-{4-[2-(4-methyl-1-oxo-1,3-dihydro-2-benzofuran-5-yl)ethyl]piperazin-1-yl}ethyl)benzonitrile] |
| 92 nM |  |  | COc1c(C#N)ccc(CCN2CCN(CCc3ccc4c(c3)COC4=O)CC2)c1F [Example 72, 3-Fluoro-2-methoxy-4-(2-{4-[2-(1-oxo-1,3-dihydro-2-benzofuran-5-yl)ethyl]piperazin-1-yl}ethyl)benzonitrile] |
| 98 nM | 98 nM |  | COc1cc(CCN2CCN(CCc3ccc4c(c3)CC(C)OC4=O)CC2)ccc1C#N (stereo not shown) [Example 57, 2-Methoxy-4-(2-{4-[2-(3-methyl-1-oxo-3,4-dihydro-1H-isochromen-6-yl)ethyl]piperazin-1-yl}ethyl)benzonitrile] |
| 94 nM |  |  | COc1cc(CCN2CCN(CCc3ccc4c(c3)COC4=O)CC2)c(Cl)cc1C#N [Example 61, 5-Chloro-2-methoxy-4-(2-{4-[2-(1-oxo-1,3-dihydro-2-benzofuran-5-yl)ethyl]piperazin-1-yl}ethyl)benzonitrile] |
| 66 nM | 66 nM |  | N#Cc1ccc2c(c1)CC[C@@H](N1CCN(CCc3ccc([N+](=O)[O-])cc3)CC1)C2 [Example 26, (6R)-6-{4-[2-(4-Nitrophenyl)ethyl]piperazin-1-yl}-5,6,7,8-tetrahydronaphthalene-2-carbonitrile] |
| 210 nM |  |  | O=C1OCc2cc(CCN3CCN(C4CCc5cc6nonc6cc5C4)CC3)ccc21 (stereo not shown) [Example 33, 5-{2-[4-(5,6,7,8-Tetrahydronaphtho[2,3-c][1,2,5]oxadiazol-6-yl)piperazin-1-yl]ethyl}-2-benzofuran-1(3H)-one] |
| 62 nM |  |  | Cc1cc(C#N)ccc1CCN1CCN(CCc2ccc([N+](=O)[O-])cc2)CC1 [Example 23, 3-Methyl-4-(2-{4-[2-(4-nitrophenyl)ethyl]piperazin-1-yl}ethyl)benzonitrile] |
| 230 nM |  |  | N#Cc1cc(F)c(CCN2CCN(CCc3ccc4c(c3)COC4=O)CC2)cc1F [Example 39, 2,5-Difluoro-4-[2-[4-[2-(1-oxo-3H-isobenzofuran-5-yl)ethyl]piperazin-1-yl]ethyl]benzonitrile] |
| 83 nM |  |  | N#Cc1ccc2c(c1)CC[C@H](N1CCN(CCc3ccc([N+](=O)[O-])cc3)CC1)C2 [Example 25, (6S)-6-{4-[2-(4-Nitrophenyl)ethyl]piperazin-1-yl}-5,6,7,8-tetrahydronaphthalene-2-carbonitrile] |
| 190 nM |  |  | Cc1cc(CCN2CCN(CCc3ccc([N+](=O)[O-])cc3)CC2)ccc1C#N [Example 24, 2-Methyl-4-(2-{4-[2-(4-nitrophenyl)ethyl]piperazin-1-yl}ethyl)benzonitrile] |
| 71 nM |  |  | COc1cc(CCN2CCN(CCc3ccc4c(c3C)COC4=O)CC2)c(Cl)cc1C#N [Example 80, 5-Chloro-2-methoxy-4-(2-{4-[2-(4-methyl-1-oxo-1,3-dihydro-2-benzofuran-5-yl)ethyl]piperazin-1-yl}ethyl)benzonitrile] |
| 78 nM |  |  | COc1c(C#N)ccc(CCN2CCN(CCc3ccc4c(c3C)COC4=O)CC2)c1C [Example 84, 2-Methoxy-3-methyl-4-(2-{4-[2-(4-methyl-1-oxo-1,3-dihydro-2-benzofuran-5-yl)ethyl]piperazin-1-yl}ethyl)benzonitrile] |
| 650 nM |  | 240 nM | C[C@H]1Cc2cc(CCN3CCN(CCc4ccc5c(c4)C[C@H](C)OC5=O)CC3)ccc2C(=O)O1 [Example 58, (3S,3′S)-6,6′-(Piperazine-1,4-diyldiethane-2,1-diyl)bis(3-methyl-3,4-dihydro-1H-isochromen-1-one)] |

| SMILES | IC50 (hROMK1 (Kir1.1); [1]) | IC50 (hROMK1 (Kir1.1); [2]) | IC50 (hROMK (hKir1.1)) |
| --- | --- | --- | --- |
| O=[N+]([O-])c1ccc(CCN2CC3CCC2CN3CCc2ccc([N+](=O)[O-])cc2)cc1 [Example 20, 2,5-Bis[2-(4-nitrophenyl)ethyl]-2,5-diazabicyclo[2.2.2]octane] | 210 nM |  |  |
| CC(Cc1ccc([N+](=O)[O-])cc1)N1CCN(C(C)Cc2ccc([N+](=O)[O-])cc2)CC1 (stereo not shown) [Example 19, 1,4-Bis[1-methyl-2-(4-nitrophenyl)ethyl]piperazine] | 330 nM |  |  |
| CC1(C)CN(CCc2ccc([N+](=O)[O-])cc2)CCN1CCc1ccc([N+](=O)[O-])cc1 [Example 9, 2,2-Dimethyl-1,4-bis[2-(4-nitrophenyl)ethyl]piperazine] | 210 nM | 210 nM |  |
